Measurements taken from ChEMBL document CHEMBL1141782, “Antineoplastic agents. 553. The Texas grasshopper Brachystola magna” (2005).
Converted amounts (≈) assume the structure as drawn.

What was measured:
Format in all cases: functional
NCI-H460 = test: Cytotoxicity against human NCI-H460 cells after 48 hrs by SRB assay; conditions: NCI-H460, 48 h, read-out: ED50 (the source's name)
KM-20L2 = test: Cytotoxicity against human KM20L2 cells after 48 hrs by SRB assay; conditions: KM-20L2, 48 h, read-out: ED50 (the source's name)
DU-145 = test: Cytotoxicity against human DU145 cells after 48 hrs by SRB assay; conditions: DU-145, 48 h, read-out: ED50 (the source's name)
P388 = test: Cytotoxicity against mouse P388 cells; conditions: read-out: ED50 (the source's name)
BXPC-3 = test: Cytotoxicity against human BxPC3 cells after 48 hrs by SRB assay; conditions: BXPC-3, 48 h, read-out: ED50 (the source's name)
MCF7 = test: Cytotoxicity against human MCF7 cells after 48 hrs by SRB assay; conditions: MCF7, 48 h, read-out: ED50 (the source's name)
SF-268 = test: Cytotoxicity against human SF268 cells after 48 hrs by SRB assay; conditions: SF-268, 48 h, read-out: ED50 (the source's name)

SMILES	EC50 (NCI-H460) [µg/mL]	EC50 (KM-20L2) [µg/mL]	EC50 (DU-145) [µg/mL]	EC50 (P388) [µg/mL]	EC50 (BXPC-3) [µg/mL]	EC50 (MCF7) [µg/mL]	EC50 (SF-268) [µg/mL]
O=C1N[C@@H]2C(=C[C@H](O)[C@@H](O)[C@H]2O)c2cc3c(c(O)c21)OCO3 [NARCICLASINE]	0.014 (≈ 0.0456 µM)	0.023 (≈ 0.0749 µM)	0.012 (≈ 0.0391 µM)	0.018 (≈ 0.0586 µM)	0.024 (≈ 0.0781 µM)	0.014 (≈ 0.0456 µM)	0.018 (≈ 0.0586 µM)
O=C1N[C@H]2[C@H](O)[C@H](O)[C@@H](O)[C@H](O)[C@@H]2c2cc3c(c(O)c21)OCO3 [PANCRATISTATIN]	0.029 (≈ 0.0892 µM)	0.048 (≈ 0.148 µM)	0.037 (≈ 0.114 µM)	0.048 (≈ 0.148 µM)	0.043 (≈ 0.132 µM)	0.035 (≈ 0.108 µM)	0.032 (≈ 0.0984 µM)
[O-]c1cc2c3c(c1)c1cc4c(cc1c[n+]3CC2)OCO4 [UNGEREMINE]	0.65 (≈ 2.45 µM)	0.5 (≈ 1.88 µM)	0.029 (≈ 0.109 µM)	1.2 (≈ 4.52 µM)	0.87 (≈ 3.28 µM)	0.48 (≈ 1.81 µM)	0.057 (≈ 0.215 µM)
